Consider 3 molecules from PubChem BioAssay AID2382 (Broad Institute, 2010).

Results filed as inconclusive are left out. Active and inactive are the calls of the source.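 How the source made its calls: active means IC50 at or below a set limit past the top dose tested; inconclusive means flat curve with 30 to 70% signal change, or a failed fit; inactive means IC50 above that set limit.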 Some results are limits rather than exact numbers.

This experiment deals with NIH3T3-HGL HSF1-luciferase reporter, MG132-induced, 8 h. As to the kind of experiment: decrease of HSF1-responsive luciferase luminescence – cell-based, NIH3T3, dose retest, confirmation (AID 2382).
In the case of `C#CCOCCOCCOCCNc1nc(N2CCN(C(=O)[C@H](CCC(=O)O)n3cc(C(N)Cc4ccc(O)cc4)nn3)CC2)nc(N2CCN(C(=O)[C@H](Cc3ccc(O)cc3)n3cc(C(N)[C@H](C)CC)nn3)CC2)n1` (stereo partly drawn), the IC50 is > 19.5 µM (inactive).
`O=C(NN=C1CCC(c2ccccc2)CC1)c1cc2c(s1)CCCC2` (stereo not drawn): the IC50 is > 19.5 µM (inactive).
Then `Cc1cc(=O)[nH]c(NN=C2CCC(C(C)(C)C)CC2)n1` (stereo not drawn), with > 19.5 µM (inactive).
